From US4191698A, “Tricyclopentyltin fluoride” (priority 1977, dated 1980)

Columns and labels:
Assay type in all cases: in vivo
[1] = system: wheat; assay: Phytotoxicity applied to wheat (scale 0-5); design: key: 0: no phytotoxicity; 1: very slight injury, the minimum that could be observed; 2: less than 10% of leaf surface injured; 3: 10-50% of leaf surface injured; 4: 50-90% of leaf surface injured; 5: plant killed
Method: (§1) The phytotoxicity of a number of tricyclopentyltin compounds and triphenyltin hydroxide on grape vines, wheat and barley was evaluated quantitatively using the following scale:
(§2) If the rating was considered to be somewhere between two integers based on observations of other plants, the lower integer followed by "0.5" was employed as the rating.

[2] = system: wheat; assay: Phytotoxicity to host plant in wheat leaf rust test (rating 0-2); design: key: 0: indicates no phytotoxicity; 1: indicates that the degree of phytotoxicity was sufficient to make the plant commercially worthless; 2: indicates that the plant was killed; settings: 300 ppm
Method: (§3) The efficacy of tricyclopentyltin fluoride as a control agent for three different plant fungi (grape downy mildew, apple powdery mildew and wheat leaf rust) was evaluated and compared with the performance of several other tricyclopentyltin compounds. The results of this evaluation are disclosed in the following tables 2, 3 and 4. The phytotoxicity of the various compounds tested was also evaluated at various concentration levels. […] Quantitative ratings for phytotoxicity are given in each of the first three tables. A rating of 0 indicates no phytotoxicity.
(§4) Host plants, (grape, wheat or apple, depending upon the fungus) are sprayed with a water suspension of the test compound and then inoculated with the pathogen. A number of control plants that have not been sprayed are also inoculated. After disease symptoms are well developed on the untreated control plants the test plants are graded for disease control.

[3] = system: grape; assay: Phytotoxicity to host plant in grape downy mildew test (rating 0-2); design: key to Phytotoxicity: 0: indicates no phytotoxicity; 1: indicates that the degree of phytotoxicity was sufficient to make the plant commercially worthless; 2: indicates that the plant was killed; settings: for Phytotoxicity: rating 0-2
Method: as §3, §4

[4] = system: Grape Downy Mildew (Plasmopara viticola); assay: Grape downy mildew control (Procedure 3)
Description: (§5) PROCEDURE 3--Employed Using Grape Downy Mildew (Plasmopara viticola), Wheat Leaf Rust (Puccinia recondita) and Apple Powdery Mildew (Podosphaera leucotricha)
as §4

[5] = system: Grape Vines; assay: Phytotoxicity applied to grape vines (scale 0-5); design: key to Phytotoxicity: 0: no phytotoxicity; 1: very slight injury, the minimum that could be observed; 2: less than 10% of leaf surface injured; 3: 10-50% of leaf surface injured; 4: 50-90% of leaf surface injured; 5: plant killed; settings: for Phytotoxicity: scale 0-5
Method: as §1, §2

[6] = system: Wheat Leaf Rust (Puccinia recondita); assay: Wheat leaf rust control (Procedure 3); settings: 300 ppm
Description: as §5, §4

[7] = system: Apple Powdery Mildew (Podosphaera leucotricha); assay: Apple powdery mildew control (Procedure 3)
Description: as §5, §4

[8] = system: Barley; assay: Phytotoxicity applied to barley (scale 0-5); design: key: 0: no phytotoxicity; 1: very slight injury, the minimum that could be observed; 2: less than 10% of leaf surface injured; 3: 10-50% of leaf surface injured; 4: 50-90% of leaf surface injured; 5: plant killed
Method: as §1, §2

Row | Compound | Phytotoxicity ([1]; 75 ppm) | Phytotoxicity ([1]; 300 ppm) | Phytotoxicity ([1]; 1200 ppm) | Phytotoxicity [2] | Phytotoxicity ([3]; 75 ppm) | Phytotoxicity ([3]; 300 ppm) | Phytotoxicity ([5]; 75 ppm) | Phytotoxicity ([5]; 300 ppm) | Phytotoxicity ([5]; 1200 ppm) | Phytotoxicity ([8]; 38 ppm) | Phytotoxicity ([8]; 150 ppm) | Phytotoxicity ([8]; 600 ppm) | % Control ([7]; 75 ppm) | other results
1 | [Cl][Sn]([CH]1CCCC1)([CH]1CCCC1)[CH]1CCCC1 [Tricyclopentyltin chloride] | 1 | 3 (10-50% of leaf surface injured) | 5 | 2 |  |  |  |  |  |  |  |  |  | 
2 | [F][Sn]([CH]1CCCC1)([CH]1CCCC1)[CH]1CCCC1 [Tricyclopentyltin fluoride] | 0 | 0 | 1.5 | 0 | 0 | 0 | 0 | 1.5 | 3.5 | 0 | 1 | 2 (less than 10% of leaf surface injured) |  | phytotoxic effects (in words) ([3]; 300 ppm): did not produce any phytotoxic effects; control rating (comparison in words) ([4]; 75 ppm): higher than the two other tricyclopentyltin compounds; activity against representative plant fungi (comparison in words) ([4]; representative plant fungi of Tables 2-4): highest activity against representative plant fungi of all the compounds tested; damage to plants (comparison in words) ([5]; Tables 5-7: grape vines, wheat and barley): least damaging to the plants; control of wheat leaf rust (in words) [6]: effectively controlled wheat leaf rust; efficacy (comparison in words) ([7]; 75 ppm): considerably higher than the other compounds tested
3 | [OH][Sn]([CH]1CCCC1)([CH]1CCCC1)[CH]1CCCC1 [Tricyclopentyltin hydroxide] | 0 | 1 | 2.5 | 0 | 0 | 1 | 1 | 2.5 | 4.5 | 1 | 2 (less than 10% of leaf surface injured) | 3.5 |  | 
4 | [OH][Sn]([c]1ccccc1)([c]1ccccc1)[c]1ccccc1 [Triphenyltin hydroxide] |  |  |  | 0 | 1 | 1 | 2.5 | 3.5 | 5 | 1 | 3 (10-50% of leaf surface injured) | 4 (50-90% of leaf surface injured) | 25% | phytotoxicity (in words) ([3]; 75 ppm): too phytotoxic to be commercially useful; % Control ([4]; 75 ppm): 95%; control rating (comparison in words) ([4]; 75 ppm): higher control rating at this level; % Control ([4]; 300 ppm): 100%; % Control [6]: 25%
5 | Tricyclopentyltin acetate |  |  |  |  |  |  | 2 (less than 10% of leaf surface injured) | 4 (50-90% of leaf surface injured) | 5 | 1 | 2 (less than 10% of leaf surface injured) | 3.5 | 25% | 
6 | Tricyclopentyltin benzoate |  |  |  |  | 0 | 1 |  |  |  |  |  |  |  | % Control ([4]; 75 ppm): 50%; % Control ([4]; 300 ppm): 75%
7 | Tricyclopentyltin phenoxide |  |  |  |  |  |  |  |  |  |  |  |  | 50% | % Control ([7]; 300 ppm): 83%
